{"source": "patent US9273043B2", "about": "“TRPV1 antagonists including dihydroxy substituent and uses thereof” (Purdue Pharma L.P., priority 2011, dated 2016)", "test_system": "FCA-induced inflammation of the rat hind paw", "test": "Freund's complete adjuvant (FCA) model of inflammatory pain, paw withdrawal threshold", "assay_type": "in vivo", "conditions": "for % Reversal [mean]: rat FCA", "description": "Test Animals: Each experiment uses rats weighing between 200-260 g at the start of the experiment. The rats are group-housed and have free access to food and water at all times, except prior to oral administration of a Compound of Formula (I) when food is removed for 16 hours before dosing. A control group acts as a comparison to rats treated with a Compound of Formula (I). The control group is administered the vehicle for the Compound of Formula (I). The volume of vehicle administered to the control group is the same as the volume of carrier and Compound of Formula (I) administered to the test group.\nInflammatory Pain: To assess the actions of a Compound of Formula (I) for the treatment or prevention of inflammatory pain, the Freund's complete adjuvant (“FCA”) model of inflammatory pain was used. FCA-induced inflammation of the rat hind paw is associated with the development of persistent inflammatory mechanical hyperalgesia and provides reliable prediction of the anti-hyperalgesic action of clinically useful analgesic drugs (Bartho et al., “Involvement of capsaicin-sensitive neurons in hyperalgesia and enhanced opioid antinociception in inflammation,” Naunyn-Schmiedeberg's Archives of Pharmacol. 342:666-670 (1990)). The right hind paw of each male, 6-week old Jcl:SD rat was administered a 50 μL intraplantar injection of 50% FCA (Sigma-Aldrich). 24 hour post-injection, the animal was assessed for response to noxious mechanical stimuli by determining the PWT, as described below. Rats were then administered a single injection of 0.1, 0.3, 1, 3, or 10 mg/kg of either the product prepared with Compound A155(a) and fumaric acid as described in Example 10, 20 mg/kg of an ibuprofen control (EMD Millipore Chemicals, Inc.), or vehicle as a control (0.5% weight/volume methylcellulose (400cP, Wako Pure Chemical Industries, Ltd., Osaka, Japan)/aqueous solution). […] Responses to noxious mechanical stimuli were then determined 1, 3, 5, and 7 hours post-administration. Percentage reversal of hyperalgesia for each animal was defined as: […]\nWith the exception of the controls (i.e., ibuprofen, vehicle) where the student's t-test was used, Dunnett's test was conducted for the % reversal. In either instance, values with p<0.05 were considered to be statistically significant. The % reversal results for administration of the product prepared with Compound A155(a) and fumaric acid as described in Example 10 and the respective controls are presented in Table 7.\nResponse to Mechanical Stimuli as an Assessment of Mechanical Hyperalgesia: The paw pressure assay was used to assess mechanical hyperalgesia. For this assay, hind paw withdrawal thresholds (PWT) to a noxious mechanical stimulus were determined using an analgesymeter (Model 37215, commercially available from Ugo Basile of Italy) as described in Stein, “Unilateral Inflammation of the Hindpaw in Rats as a Model of Prolonged Noxious Stimulation: Alterations in Behavior and Nociceptive Thresholds,” Pharmacol. Biochem. and Behavior 31:451-455 (1988). The maximum weight that could be applied to the hind paw was set at 250 g and the end point was taken as complete withdrawal of the paw. PWT was determined once for each rat at each time point and either only the affected (ipsilateral) paw was tested, or both the ipsilateral and contralateral (non-injured) paw were tested.", "note": "Marks after values point to notes of the source that are not given here."}
{"smiles": "CC1CN(c2ncc(C(O)CO)cc2F)CCN1C(=O)Nc1nc2cc(F)ccc2s1.O=C(O)C=CC(=O)O", "note": "(stereo not drawn)", "values": [{"measurement": "minimal effective dose", "setting": "rat FCA model", "value": 0.1, "unit": "mg/kg"}, {"measurement": "% Reversal [mean]", "setting": "0.1 mg/kg, 1 h after administration", "value": "31.9** %"}, {"measurement": "% Reversal [mean]", "setting": "0.1 mg/kg, 1 h after administration, listed as product prepared with Compound A155(a) and fumaric acid", "value": 31.9, "unit": "%"}, {"measurement": "% Reversal [mean]", "setting": "0.1 mg/kg, 3 h after administration", "value": "37.8** %"}, {"measurement": "% Reversal [mean]", "setting": "0.1 mg/kg, 3 h after administration, listed as product prepared with Compound A155(a) and fumaric acid", "value": 37.8, "unit": "%"}, {"measurement": "% Reversal [mean]", "setting": "0.1 mg/kg, 5 h after administration", "value": "31.3** %"}, {"measurement": "% Reversal [mean]", "setting": "0.1 mg/kg, 5 h after administration, listed as product prepared with Compound A155(a) and fumaric acid", "value": 31.3, "unit": "%"}, {"measurement": "% Reversal [mean]", "setting": "0.1 mg/kg, 7 h after administration", "value": "23.6** %"}, {"measurement": "% Reversal [mean]", "setting": "0.1 mg/kg, 7 h after administration, listed as product prepared with Compound A155(a) and fumaric acid", "value": 23.6, "unit": "%"}, {"measurement": "% Reversal [mean]", "setting": "0.3 mg/kg, 1 h after administration", "value": "65.0** %"}, {"measurement": "% Reversal [mean]", "setting": "0.3 mg/kg, 1 h after administration, listed as product prepared with Compound A155(a) and fumaric acid", "value": 65.0, "unit": "%"}, {"measurement": "% Reversal [mean]", "setting": "0.3 mg/kg, 3 h after administration", "value": "60.2** %"}, {"measurement": "% Reversal [mean]", "setting": "0.3 mg/kg, 3 h after administration, listed as product prepared with Compound A155(a) and fumaric acid", "value": 60.2, "unit": "%"}, {"measurement": "% Reversal [mean]", "setting": "0.3 mg/kg, 5 h after administration", "value": "54.1** %"}, {"measurement": "% Reversal [mean]", "setting": "0.3 mg/kg, 5 h after administration, listed as product prepared with Compound A155(a) and fumaric acid", "value": 54.1, "unit": "%"}, {"measurement": "% Reversal [mean]", "setting": "0.3 mg/kg, 7 h after administration", "value": "39.4** %"}, {"measurement": "% Reversal [mean]", "setting": "0.3 mg/kg, 7 h after administration, listed as product prepared with Compound A155(a) and fumaric acid", "value": 39.4, "unit": "%"}, {"measurement": "% Reversal [mean]", "setting": "1 mg/kg, 1 h after administration", "value": "79.4** %"}, {"measurement": "% Reversal [mean]", "setting": "1 mg/kg, 3 h after administration", "value": "84.1** %"}, {"measurement": "% Reversal [mean]", "setting": "1 mg/kg, 5 h after administration", "value": "78.2** %"}, {"measurement": "% Reversal [mean]", "setting": "1 mg/kg, 7 h after administration", "value": "70.5** %"}, {"measurement": "% Reversal [mean]", "setting": "3 mg/kg, 1 h after administration", "value": "80.3** %"}, {"measurement": "% Reversal [mean]", "setting": "3 mg/kg, 1 h after administration, listed as product prepared with Compound A155(a) and fumaric acid", "value": 80.3, "unit": "%"}, {"measurement": "% Reversal [mean]", "setting": "3 mg/kg, 3 h after administration", "value": "87.9** %"}, {"measurement": "% Reversal [mean]", "setting": "3 mg/kg, 3 h after administration, listed as product prepared with Compound A155(a) and fumaric acid", "value": 87.9, "unit": "%"}, {"measurement": "% Reversal [mean]", "setting": "3 mg/kg, 5 h after administration", "value": "86.6** %"}, {"measurement": "% Reversal [mean]", "setting": "3 mg/kg, 5 h after administration, listed as product prepared with Compound A155(a) and fumaric acid", "value": 86.6, "unit": "%"}, {"measurement": "% Reversal [mean]", "setting": "3 mg/kg, 7 h after administration", "value": "97.3** %"}, {"measurement": "% Reversal [mean]", "setting": "3 mg/kg, 7 h after administration, listed as product prepared with Compound A155(a) and fumaric acid", "value": 97.3, "unit": "%"}, {"measurement": "% Reversal [mean]", "setting": "10 mg/kg, 1 h after administration", "value": "102.5** %"}, {"measurement": "% Reversal [mean]", "setting": "10 mg/kg, 3 h after administration", "value": "94.1** %"}, {"measurement": "% Reversal [mean]", "setting": "10 mg/kg, 5 h after administration", "value": "97.3** %"}, {"measurement": "% Reversal [mean]", "setting": "10 mg/kg, 7 h after administration", "value": "93.1** %"}]}
